Data taken from patent publication US8148424B2, “Tocopherols, tocotrienols, other chroman and side chain derivatives and uses thereof” (Research Development Foundation, priority 1998, dated 2012).

Key:
[1] = system: MCF-7 cells; assay: DNA synthesis arrest by 3H-uptake (Example 8); type: cell-based, human; details: Homo sapiens, MCF7, 5% serum, 3H-uptake at one day treatment
Method: MDA-MB-435 and MCF-7 cells at 1.5×10^5/well in 12 well plates for apoptosis and 1.5×10^4/well in 96 well plates for DNA synthesis arrest were incubated overnight in culture media and treated with α-tocopherol, α-tocotrinel, compound 1, 6-0-carboxymethyl alpha-tocotrienol (6-0-CM-α-T, 44), and vitamin E succinate (VES) at different concentrations in experimental media (2% serum for MDA-MB-435 cells and 5% serum for MCF-7 cells). DNA synthesis arrest was determined by ^3H-uptake at one day treatment and apoptosis was detected by DAPI staining at three day treatment. EC50 was calculated as the dosage of test compounds that gave 50% growth inhibition.

[2] = system: P21 in MDA-MB-435 human breast cancer cells; assay: P21 expression; type: cell-based
Text: The mechanisms of growth inhibition by DNA synthesis arrest, cell cycle arrest and by induction of cellular differentiation have not been characterized as fully as the mechanism of growth inhibition by apoptosis. […] Tumor cells cultured with the compounds disclosed herein are growth inhibited in the G1 cell cycle phase, undergo morphological changes and express milk lipids, an indication that the cell cycle blocked cells have undergone differentiation.

[3] = system: MDA-MB-435 Human Breast Cancer Cells Transplanted into Nude Mice; assay: Preclinical chemotherapeutic xenograft study; type: in vivo; details: for Percent mean tumor weight gain (mg) following treatments: relative to day 1 of same group
Method: (§1) For the preclinical chemotherapeutic studies, in the absence of an maximum tolerated dose, the mice are supplemented with 30 and 20 mgs/0.1 ml by gavage daily for 21 days. Compound 1 is dissolved in 100% ethanol at 2 grams of compound 1/5 mls of ethanol, and diluted in peanut oil (nonsupplemented vitamin E) to yield 30 and 20 mgs of compound 1 per 0.1 ml. Vehicle control consisted of a mixture of ethanol and peanut oil equivalents. The preclinical chemotherapeutic studies are conducted with compound 1, utilizing human MDA-MB-435 human breast cancer cells, human DU-145 prostate cancer cells, and human HT-20 colon tumor cells transplanted into Balb/c immune compromised nude mice.
(§2) A total of 40 immune compromised nude mice are utilized for testing each test compound (two treatment groups at 20 and 30 mg/day) in each tumor cell type. […] Tumor cells are transplanted subcutaneously into the left flank and permitted to grow to approximately 70 mg in size, test compound treatments by daily gavage are initiated, and continue for a total of 21 days. Mice are monitored daily for tumor size by caliper measurements. Mice are treated for 21 days; however, the mice are sacrificed when the tumors of the vehicle control reached 500 mg in weight. At the completion of the protocol, tumors are excised and tumor size established by weight. At the time of sacrifice, serum, tumor, and heart muscle are taken from animals in the two compound 1 test groups in order to establish levels of compound 1 via HPLC analyses (data not included). The chemotherapeutic effectiveness of compound 1 administered daily at 30 and 20 mgs/day is determined by comparing the tumor size of the two treatment groups with the vehicle control group for each of the three tumor types, and by comparing the size of the tumor in the two treatment groups with the tumor group from the positive control. Treatment is for 21 days, experiments are continued until mean weight of tumor for vehicle control reaches 500 mgs.

[4] = system: HT-29 Human Colon Cancer Cells Transplanted into Nude Mice; assay: Preclinical chemotherapeutic xenograft study; type: in vivo; details: for Percent mean tumor weight gain (mg) following treatments: relative to day 1 of same group
Method: as §1, §2

[5] = system: DU-145 Human Prostate Cancer Cells Transplanted into Nude Mice; assay: Preclinical chemotherapeutic xenograft study; type: in vivo; details: for Percent mean tumor weight gain (mg) following treatments: relative to day 1 of same group
Method: as §1, §2

[6] = 20 mg/day by gavage for 21 days, day 22
[7] = 30 mg/day by gavage for 21 days, day 22

For `Cc1c(C)c2c(c(C)c1OCC(=O)O)CC[C@@](C)(CCC[C@H](C)CCC[C@H](C)CCCC(C)C)O2` [Compound 1, 2,5,7,8-tetramethyl-(2R-(4R,8R,12-trimethyltridecyl)chroman-6-yloxy)acetic acid], the EC50 [1] was 20 µM, the “P21 mRNA and protein” value [2] was “up-regulated” and the “reduction of mean tumor weight vs vehicle control” value (“reduction of mean tumor weight” for short) ([3]; 20 mg/day by gavage for 21 days, day 21) was 20.7%. The “Mean tumor Weights (mg) Following Treatments” value (“Mean tumor Weights” for short) ([3]; 20 mg/day gavage, day 1) was 70.1 mg, the “Percent mean tumor weight gain (mg) following treatments” value (from here on “Percent mean tumor weight gain”) ([3]; 20 mg/day gavage, day 1) was 100% and the “Mean tumor Weights” value ([3]; 20 mg/day gavage, day 4) was 85.8 mg. The “Percent mean tumor weight gain” value ([3]; 20 mg/day gavage, day 4) was 122.4%, the “Mean tumor Weights” value ([3]; 20 mg/day gavage, day 7) was 123.9 mg and the “Percent mean tumor weight gain” value ([3]; 20 mg/day gavage, day 7) was 176.7%. For the same compound, the “Mean tumor Weights” value ([3]; 20 mg/day gavage, day 10) was 127.9 mg, the “Percent mean tumor weight gain” value ([3]; 20 mg/day gavage, day 10) was 182.5% and the “Mean tumor Weights” value ([3]; 20 mg/day gavage, day 14) was 147.2 mg. The “Percent mean tumor weight gain” value ([3]; 20 mg/day gavage, day 14) was 210.0%, the “Mean tumor Weights” value ([3]; 20 mg/day gavage, day 17) was 143.8 mg and the “Percent mean tumor weight gain” value ([3]; 20 mg/day gavage, day 17) was 205.1%. For the same compound, the “Mean tumor Weights” value ([3]; 20 mg/day gavage, day 21) was 179.4 mg, the “Percent mean tumor weight gain” value ([3]; 20 mg/day gavage, day 21) was 255.9% and the “reduction of mean tumor weight” value ([3]; 30 mg/day by gavage for 21 days, day 21) was 44.6%. The “Mean tumor Weights” value ([3]; 30 mg/day gavage, day 1) was 68.1 mg, the “Percent mean tumor weight gain” value ([3]; 30 mg/day gavage, day 1) was 100% and the “Mean tumor Weights” value ([3]; 30 mg/day gavage, day 4) was 85.7 mg. The “Percent mean tumor weight gain” value ([3]; 30 mg/day gavage, day 4) was 125.8%, the “Mean tumor Weights” value ([3]; 30 mg/day gavage, day 7) was 97.3 mg and the “Percent mean tumor weight gain” value ([3]; 30 mg/day gavage, day 7) was 142.9%. The “Mean tumor Weights” value ([3]; 30 mg/day gavage, day 10) was 98.4 mg, the “Percent mean tumor weight gain” value ([3]; 30 mg/day gavage, day 10) was 144.5% and the “Mean tumor Weights” value ([3]; 30 mg/day gavage, day 14) was 126.6 mg. The “Percent mean tumor weight gain” value ([3]; 30 mg/day gavage, day 14) was 185.9%, the “Mean tumor Weights” value ([3]; 30 mg/day gavage, day 17) was 118.7 mg and the “Percent mean tumor weight gain” value ([3]; 30 mg/day gavage, day 17) was 174.3%. For the same compound, the “Mean tumor Weights” value ([3]; 30 mg/day gavage, day 21) was 125.2 mg, the “Percent mean tumor weight gain” value ([3]; 30 mg/day gavage, day 21) was 178.6% and the “reduction of mean tumor weight” value [4, 6] was 33.3%. The “Mean tumor Weights” value ([4]; 20 mg/day gavage, day 1) was 59.5 mg, the “Percent mean tumor weight gain” value ([4]; 20 mg/day gavage, day 1) was 100% and the “Mean tumor Weights” value ([4]; 20 mg/day gavage, day 5) was 84.0 mg. For the same compound, the “Percent mean tumor weight gain” value ([4]; 20 mg/day gavage, day 5) was 141.2%, the “Mean tumor Weights” value ([4]; 20 mg/day gavage, day 8) was 97.0 mg and the “Percent mean tumor weight gain” value ([4]; 20 mg/day gavage, day 8) was 163.0%. The “Mean tumor Weights” value ([4]; 20 mg/day gavage, day 12) was 124.6 mg, the “Percent mean tumor weight gain” value ([4]; 20 mg/day gavage, day 12) was 209.4% and the “Mean tumor Weights” value ([4]; 20 mg/day gavage, day 15) was 147.3 mg. The “Percent mean tumor weight gain” value ([4]; 20 mg/day gavage, day 15) was 247.6%, the “Mean tumor Weights” value ([4]; 20 mg/day gavage, day 19) was 198.0 mg and the “Percent mean tumor weight gain” value ([4]; 20 mg/day gavage, day 19) was 332.8%. For the same compound, the “Mean tumor Weights” value ([4]; 20 mg/day gavage, day 22) was 248.2 mg, the “Percent mean tumor weight gain” value ([4]; 20 mg/day gavage, day 22) was 417.1% and the “reduction of mean tumor weight” value [4, 7] was 34.5%. The “Mean tumor Weights” value ([4]; 30 mg/day gavage, day 1) was 40.0 mg, the “Percent mean tumor weight gain” value ([4]; 30 mg/day gavage, day 1) was 100% and the “Mean tumor Weights” value ([4]; 30 mg/day gavage, day 5) was 83.0 mg. The “Percent mean tumor weight gain” value ([4]; 30 mg/day gavage, day 5) was 139.5%, the “Mean tumor Weights” value ([4]; 30 mg/day gavage, day 8) was 96.7 mg and the “Percent mean tumor weight gain” value ([4]; 30 mg/day gavage, day 8) was 162.5%. For the same compound, the “Mean tumor Weights” value ([4]; 30 mg/day gavage, day 12) was 129.3 mg, the “Percent mean tumor weight gain” value ([4]; 30 mg/day gavage, day 12) was 217.3% and the “Mean tumor Weights” value ([4]; 30 mg/day gavage, day 15) was 144.1 mg. The “Percent mean tumor weight gain” value ([4]; 30 mg/day gavage, day 15) was 242.2%, the “Mean tumor Weights” value ([4]; 30 mg/day gavage, day 19) was 176.1 mg and the “Percent mean tumor weight gain” value ([4]; 30 mg/day gavage, day 19) was 296.0%. For the same compound, the “Mean tumor Weights” value ([4]; 30 mg/day gavage, day 22) was 243.8 mg, the “Percent mean tumor weight gain” value ([4]; 30 mg/day gavage, day 22) was 409.7% and the “reduction of mean tumor weight” value [5, 6] was 31.5%. For the same compound, the “Mean tumor Weights” value ([5]; 20 mg/day gavage, day 1) was 66.5 mg, the “Percent mean tumor weight gain” value ([5]; 20 mg/day gavage, day 1) was 100% and the “Mean tumor Weights” value ([5]; 20 mg/day gavage, day 5) was 103.5 mg. The “Percent mean tumor weight gain” value ([5]; 20 mg/day gavage, day 5) was 155.6%, the “Mean tumor Weights” value ([5]; 20 mg/day gavage, day 8) was 137.9 mg and the “Percent mean tumor weight gain” value ([5]; 20 mg/day gavage, day 8) was 207.4%. For the same compound, the “Mean tumor Weights” value ([5]; 20 mg/day gavage, day 12) was 208 mg, the “Percent mean tumor weight gain” value ([5]; 20 mg/day gavage, day 12) was 312.8% and the “Mean tumor Weights” value ([5]; 20 mg/day gavage, day 15) was 254.8 mg. The “Percent mean tumor weight gain” value ([5]; 20 mg/day gavage, day 15) was 383.2%, the “Mean tumor Weights” value ([5]; 20 mg/day gavage, day 19) was 362.2 mg and the “Percent mean tumor weight gain” value ([5]; 20 mg/day gavage, day 19) was 362.2%. For the same compound, the “Mean tumor Weights” value ([5]; 20 mg/day gavage, day 22) was 370.5 mg, the “Percent mean tumor weight gain” value ([5]; 20 mg/day gavage, day 22) was 544.7% and the “reduction of mean tumor weight” value [5, 7] was 24.8%. The “Mean tumor Weights” value ([5]; 30 mg/day gavage, day 1) was 67.8 mg, the “Percent mean tumor weight gain” value ([5]; 30 mg/day gavage, day 1) was 100% and the “Mean tumor Weights” value ([5]; 30 mg/day gavage, day 5) was 102.5 mg. For the same compound, the “Percent mean tumor weight gain” value ([5]; 30 mg/day gavage, day 5) was 151.2%, the “Mean tumor Weights” value ([5]; 30 mg/day gavage, day 8) was 131.3 mg and the “Percent mean tumor weight gain” value ([5]; 30 mg/day gavage, day 8) was 193.7%. The “Mean tumor Weights” value ([5]; 30 mg/day gavage, day 12) was 241.2 mg, the “Percent mean tumor weight gain” value ([5]; 30 mg/day gavage, day 12) was 355.8% and the “Mean tumor Weights” value ([5]; 30 mg/day gavage, day 15) was 256.8 mg. The “Percent mean tumor weight gain” value ([5]; 30 mg/day gavage, day 15) was 378.8%, the “Mean tumor Weights” value ([5]; 30 mg/day gavage, day 19) was 379.9 mg and the “Percent mean tumor weight gain” value ([5]; 30 mg/day gavage, day 19) was 379.9%. For the same compound, the “Mean tumor Weights” value ([5]; 30 mg/day gavage, day 22) was 407 mg and the “Percent mean tumor weight gain” value ([5]; 30 mg/day gavage, day 22) was 560.3%.
